In publication PMC3356326 (PLoS ONE, 2012):
Read-outs that look alike come from different tables or passages of the source.

Legend:
U87MG tumor-bearing mice = experiment: Logan graphical analysis with image-derived input function of 60-min dynamic PET: volumes of distribution; format: in vivo, mouse; settings: mean ± SD, n = 4/group
Procedure: (§1) Dynamic PET data acquisition was performed using an Inveon microPET scanner (Siemens Medical Solutions). With the assistance of the Inveon system's positioning laser, U87MG tumor-bearing mouse was placed with its tumor located at the center of field of view (FOV), where the highest imaging sensitivity can be achieved. […] During the acquisition period, a thermostat-controlled thermal heater maintained the body temperature of mice. PET images were reconstructed with 2 iterations of 3-dimensional ordered-subsets expectation maximum (3D OSEM) with 14 subsets, followed by 18 iterations of maximum a posteriori (MAP) algorithm with a smoothing parameter of 0.1 (frame rates: 10×30 s, 5×60 s, 5×120 s and 10×240 s). No attenuation correction was performed in this study.
(§2) In the dynamic PET image analysis, regions of interest (ROIs) were measured with the Inveon Research Workplace (IRW) 3.0 software. ROI was determined by manually superimposing the ellipsoid volume of interest (VOI) to the target tissue on the last frame of the entire 60-min dynamic image sequence. Then a threshold of 30% maximum was set to screen the voxels with lower values in the entire VOI because of possible tumor heterogeneity and shape irregularity. The time–activity curves were derived by superimposing the same VOI on each time frame of the entire 60-min dynamic image sequence and the value of each time point represents the overall concentration of radioactivity in the tissue. The activity concentrations were determined by the mean pixel intensity within each VOI, which were converted to µCi/ml using a calibration constant. Assuming the tissue density of 1 g/ml, the ROI activity was converted to µCi/g and normalized as percent injected dose per gram (%ID/g). The tissue uptake quantification of static scan at 60 min was determined from the last frame of dynamic images. The arterial blood input function was estimated by drawing a VOI in the region of left ventricle on the reconstructed PET image at the 0.5 min time point (the second frame of dynamic PET image series). The region of muscle contralateral to the tumor was selected as the reference tissue.
Kinetic analysis of regional TACs was performed based on two-tissue (three-compartment) and one-tissue (two-compartment) model (Fig. 2). The three-compartment model consists of unmetabolized radiotracer in arterial blood plasma (Cp), free or non-specific binding tracer in interstitial and intracellular space (Ct), and tracer bound specifically to integrin (Cm). Both Ct and Cm occupy the same physical volume. The ROI(t) represents the sum of radioactivity from all compartments and includes the plasma volume fraction. Similarly, the two-compartment model describes RGD tracer kinetics using muscle as reference tissue and Ctref represents free (non-specific binding) tracer in the reference tissue (muscle) region. Generally speaking, kinetic parameters K1 [ml/g/min], k2 [1/min], k3 [1/min], k4 [1/min] represent the transport or binding rates of plasma perfusion into tissue, clearance from plasma, specific binding and dissociation, respectively.
Based on Logan plot shown in Eq. 1 [28], [33], the ratio between the integral of Cp(t) and the instantaneous value of ROI(t), and the ratio between the integral and the instantaneous value of ROI(t) become linearly related when the exchange between the target tissue and plasma reaches an equilibrium (t>t*). [drawing 1] (1) DV denotes the distribution volume and can be easily calculated from the linear regression. DV is a measure of the capacity of tissue to bind a particular tracer and can be regarded as the sum of specific (VS) and nonspecific distribution (VND). [drawing 2] (2) [drawing 3] (3) Total volume of distribution is defined in equation 4. [drawing 4] (4) K1, k2, k3, and k4 are calculated by linear fitting to 60-min dynamic PET data.

[1] = Static PET image quantification of tissue uptake at 60 min (last frame of dynamic scan); format: in vivo; settings: female, athymic nude, mouse, iv, 3.7 MBq, total radioactivity, tail-vein injection ~3.7 MBq, static PET image at 1 h, mean ± SD, n = 4/group
Procedure: The U87MG human glioblastoma tumor model, which has been documented to express high level of integrin αvβ3 [32], was selected for PET imaging. The U87MG cells obtained from ATCC (Manassas, VA) were cultured in DMEM medium supplemented with 10% fetal bovine serum (FBS), 100 IU/mL penicillin, and 100 µg/mL streptomycin (Invitrogen), and in a humidified atmosphere containing 5% CO2 at 37°C. The xenografted model was established by inoculation of 5×10^6 cells into the left shoulder of each female athymic nude mouse at 5–6 weeks of age (Harlan Laboratories). Tumor growth was monitored by caliper measurements of perpendicular axes of the tumor three times a week after the tumors are palpable. The tumor volume was determined as the formula: V = a×(b^2)/2, where a and b are the length and width of each tumor, respectively, in mm. The U87MG xenografted mice underwent PET imaging when the tumor volume reached about 300 mm^3 (about 3 weeks after inoculation). This study was approved by the NIH Clinical Center Animal Care and Use Committee (ACUC). Moreover, all mice were maintained in a specific pathogen-free facility in accordance with the requirements of the ACUC.
as §1, §2

[2] = kidneys, U87MG tumor-bearing mice, read-out: Tissue uptake, Kidneys
[3] = liver, U87MG tumor-bearing mice, read-out: Tissue uptake, Liver
[4] = muscle, U87MG tumor-bearing mice, read-out: Tissue uptake, Muscle
[5] = tumor (U87MG xenograft), U87MG xenograft, female athymic nude mice, read-out: Tissue uptake, Tumor

Row | SMILES | Volume of Distribution (VT), Kidneys (U87MG tumor-bearing mice) | Volume of Distribution (VT), Liver (U87MG tumor-bearing mice) | Volume of Distribution (VT), Muscle (U87MG tumor-bearing mice) | Volume of Distribution (VT), Tumor (U87MG tumor-bearing mice) | tissue uptake at 1 h [1, 2] | tissue uptake at 1 h [1, 3] | tissue uptake at 1 h [1, 4] | tissue uptake at 1 h [1, 5]
1 | N=C(N)NCCC[C@@H]1NC(=O)[C@H](CCCCNC(=O)CC[C@H](NC(=O)COCCOCCOCCNC(=S)Nc2ccc(C[C@H]3CN(CC(=O)O)CCN(CC(=O)O)CCN3CC(=O)O)cc2)C(=O)NCCCC[C@@H]2NC(=O)[C@@H](Cc3ccc(O)cc3)NC(=O)[C@H](CC(=O)O)NC(=O)CNC(=O)[C@H](CCCNC(=N)N)NC2=O)NC(=O)[C@@H](Cc2ccc(O)cc2)NC(=O)[C@H](CC(=O)O)NC(=O)CNC1=O [[^68Ga]Ga-NOTA-PRGD2] [metal not drawn] | 3.37±0.56 | 1.24±0.11 | 0.57±0.064 | 2.07±0.12 | – | – | – | –
2 | N=C(N)NCCC[C@@H]1NC(=O)[C@H](CCCCNC(=O)CC[C@H](NC(=O)COCCOCCOCCNC(=S)Nc2ccc(C[C@H]3CN(CC(=O)O)CCN(CC(=O)O)CCN3CC(=O)O)cc2)C(=O)NCCCC[C@@H]2NC(=O)[C@@H](Cc3ccc(O)cc3)NC(=O)[C@H](CC(=O)O)NC(=O)CNC(=O)[C@H](CCCNC(=N)N)NC2=O)NC(=O)[C@@H](Cc2ccc(O)cc2)NC(=O)[C@H](CC(=O)O)NC(=O)CNC1=O [[^18F]AlF-NOTA-PRGD2] [listing 1 of 2 here] | 5.24±0.24 | 1.23±0.085 | 0.53±0.086 | 2.65±0.34 | – | – | – | –
3 | N=C(N)NCCC[C@@H]1NC(=O)[C@H](CCCCNC(=O)CC[C@H](NC(=O)COCCOCCOCCNC(=S)Nc2ccc(C[C@H]3CN(CC(=O)O)CCN(CC(=O)O)CCN3CC(=O)O)cc2)C(=O)NCCCC[C@@H]2NC(=O)[C@@H](Cc3ccc(O)cc3)NC(=O)[C@H](CC(=O)O)NC(=O)CNC(=O)[C@H](CCCNC(=N)N)NC2=O)NC(=O)[C@@H](Cc2ccc(O)cc2)NC(=O)[C@H](CC(=O)O)NC(=O)CNC1=O [[^18F]AlF-NOTA-PRGD2] [listing 2 of 2 here] | – | – | – | – | 4.67 ± 1.08 %ID/g | 1.21 ± 0.54 %ID/g | 0.53 ± 0.11 %ID/g | –
4 | CC(F)C(=O)NCCOCCOCCOCC(=O)N[C@@H](CCC(=O)NCCCC[C@@H]1NC(=O)[C@@H](Cc2ccc(O)cc2)NC(=O)[C@H](CC(=O)O)NC(=O)CNC(=O)[C@H](CCCNC(=N)N)NC1=O)C(=O)NCCCC[C@@H]1NC(=O)[C@@H](Cc2ccc(O)cc2)NC(=O)[C@H](CC(=O)O)NC(=O)CNC(=O)[C@H](CCCNC(=N)N)NC1=O (some centres unmarked) [[^18F]FPPRGD2, reference compound] | 4.10±0.27 | 0.97±0.14 | 0.44±0.071 | 2.35±0.22 | 2.78 ± 0.58 %ID/g | 1.1 ± 0.18 %ID/g | 0.36 ± 0.089 %ID/g | 2.91 ± 0.35 %ID/g
5 | N=C(N)NCCC[C@@H]1NC(=O)[C@H](CCCCNC(=O)CC[C@H](NC(=O)COCCOCCOCCNC(=S)Nc2ccc(C[C@H]3CN(CC(=O)O)CCN(CC(=O)O)CCN3CC(=O)O)cc2)C(=O)NCCCC[C@@H]2NC(=O)[C@@H](Cc3ccc(O)cc3)NC(=O)[C@H](CC(=O)O)NC(=O)CNC(=O)[C@H](CCCNC(=N)N)NC2=O)NC(=O)[C@@H](Cc2ccc(O)cc2)NC(=O)[C@H](CC(=O)O)NC(=O)CNC1=O [[^68Ga]Ga-NOTA-PRGD2, metal not drawn] | – | – | – | – | – | – | – | 2.42 ± 0.56 %ID/g
